Laboratory results taken from patent publication US5962524A, “Depigmenting composition” (Caster, priority 1997, dated 1999).

What was measured:
[1] = tested on: tail pigmentation of black mice; test: Depigmenting power in vivo on the tails of black mice (lightness parameter L*); details: concentration ten times as great increases the efficacy by a factor of two
Description: L 908/1). Composition 1: gel containing 99.0% of liposomes containing a 0.5% dose of diethyl acetone-α,α'-dioxalate Composition 2: emulsion containing 10.0% of liposomes containing a 0.5% dose of diethyl acetone-α,α'-dioxalate Reference product: composition containing 2% hydroquinone Each composition is applied daily for 28 days to the tail of four black mice. For each mouse, the lightness parameter L* is measured on day D0, D15 and D28 using a chromameter.

tyrosinase [2] = test: Inhibition of the tyrosine-tyrosinase reaction, spectrophotometric assay of melanin (absorbance at 477 nm); type: biochemical
Description: This is a spectrophotometric assay (absorbance at 477 nm) of the melanin produced in vitro by tyrosinase from the tyrosine substrate. […] 2.0 ml of bis Tris buffer (0.1 M, pH 6.5) and 5.0 ml of tyrosine stock solution are added to 0 ml, 1.2 ml, 2.0 ml and 2.5 ml of tyrosinase solution and the mixtures are each completed with water to a total volume of 10.0 ml. These mixtures are incubated for 1 hour and 30 minutes at 37° C. on a water bath and are then rapidly cooled to 4° C. Measurement of the absorbance of the solutions at λ=477 nm relative to a solution free of tyrosinase makes it possible to plot a calibration curve characterized by the curve equation y=0.813×+1.27×10^-3 and by a correlation coefficient equal to 0.999. The following solutions are then prepared: Control solution (100% tyrosinase activity): Solution to be ascertained: These two solutions are incubated for 1 hour 30 minutes on a water bath at 37° C. The solutions are rapidly cooled to 4° C. and the absorbance at 477 nm is then read, taking a blank free of tyrosinase as reference.

[3] = tested on: tyrosinase in melanocytes of human skin explants; test: Depigmenting power in vitro on skin explants (histological evaluation of melanocyte coloration); type: cell-based; details: for tyrosinase activity: 15 hours at 37° C., 0.005 M L-DOPA
Description: The inhibitory activity of diethyl acetone-α,α'-dioxalate on tyrisonase in melanocytes was evaluated by a histological study on skin explants.
After thawing and fixing for 30 minutes in 10% (w/v) formaldehyde solution, human skin explants obtained from an abdominoplasty are incubated for 15 hours at 37° C. in the presence of 0.005 M of L-DOPA and of the test products.
The diethyl acetone-α,α'-dioxalate is used at concentrations of 0.5%, 1% and 2% (w/v) in a 10% (v/v) solution of DMSO in water.
Control explants incubated only in the presence of 0.005 M of L-DOPA are prepared in parallel.
For the histological examination, 4 μm thick slices are taken from explants included in paraffin and the slices are stained with cresyl violet.
Optical microscopy photographs in white light allow a visual evaluation of the coloration of the melanocytes reflecting the tyrosinase activity.

tyrosinase [4] = test: Inhibition of the L-DOPA-tyrosinase reaction, revealed by thin layer chromatography; type: biochemical; details: 10 μl of a 1% solution in ethanol on silica gel plate; L-DOPA 1 M, tyrosinase 238 IU/ml
Description: 10 μl of a 1% solution of diethyl acetone-α,α'-dioxalate in ethanol (at 96%) is deposited onto G60 silica gel plates. The migration solvent is a butanol/water/acetic acid mixture (4/1/1, v/v/v) which is migrated to a height of 10 cm. After drying, an L-DOPA solution (1 M) is sprayed over the entire plate, followed by a tyrosinase solution (238 IU/ml). […] This white spot is due to the absence of tyrosinase activity converting the L-DOPA substrate into dopaquinone, the molecule which spontaneously converts into a brown pigment (brown background) in the presence of light.

[5] = Oral toxicity in rats (LD50); details: rat, in vivo, administered orally to rats, read-out: 50% lethal dose (LD50)
Description: The evaluation of the toxicity of the active principle of the present invention, administered orally to rats, gives 50% lethal dose values (LD50) of greater than 2000 mg/kg. Diethyl acetone-α,α'-dioxalate is thus not classed as a risk product.

SMILES | dose dependence of depigmenting efficacy [1] | in vitro production of melanin by tyrosinase from L-tyrosine (tyrosinase [2]; 2.58% solution in alcohol) | Absorbance at 477 nm solution to be assayed, mean (tyrosinase [2]; mean of five tests, 2.0 ml of 2.58% solution in alcohol, 1 h 30 min at 37° C., control mean ≈1.16) | Absorbance at 477 nm solution to be assayed (tyrosinase [2]; single tests 1-5, 2.0 ml of 2.58% solution in alcohol, 1 h 30 min at 37° C., control solution 1.16-1.23) | tyrosinase activity ([3]; 0.5% (w/v) in 10% DMSO) | tyrosinase activity ([3]; 1.0% (w/v) in 10% DMSO) | tyrosinase activity ([3]; 2.0% (w/v) in 10% DMSO) | inhibition of the tyrosinase activity in skin explants ([3]; tested at 0.5%, 1.0% and 2%) | inhibition of the DOPA-tyrosinase reaction (white band on brown background) (tyrosinase [4]) | LD50 [5] [mg/kg] | tyrosinase activity ([3]; 1.1% (w/v) in 10% DMSO)
CCOC(=O)C(O)=CC(=O)C=C(O)C(=O)OCC [diethyl acetone-α,α'-dioxalate] | acts in a dose-dependent manner | effectively inhibits the in vitro production of melanin | ≈ 0 | ≈ 0 | 0 | 0 | 0 | totally inhibits the tyrosinase activity | effectively inhibits the DOPA-tyrosinase reaction | > 2000 | 
Oc1ccc(O)cc1 [hydroquinone, reference compound] |  |  |  |  |  |  |  |  |  |  | 0
